Assay results taken from US20230003721A1, “MITOTHERAPEUTICS FOR THE TREATMENT OF BRAIN DISORDERS” (The University of Florida Research Foundation, Inc., priority 2019, published 2023).
Counter-ions that a name gives are not always drawn. Like-named read-outs stand apart in the source and are kept apart here.

Experiments:
[1] = tested on: Drosophila model for AD; assay: Drosophila model for AD: neuronal mitochondrial morphology; assay type: in vivo; conditions: cell bodies of neurons; 100 micromolar, 15 days-of-age
Excerpt: To assay representative compounds in this example, we employed a Drosophila model for AD (X. Wang et al., Mol. Neurobiol. […] Flies expressing this toxic protein show: […] Drugs that show efficacy therefore: enlarge neuronal mitochondria (increased volume, increased surface area, increased length), reduce sphericity, and reduce the number of mitochondria compared to untreated Alzheimer's flies. The AD model flies were collected immediately after eclosion from the pupal case and transferred to food that was laced with drug at 100 micromolar concentration. The flies were aged to 15 days-of-age: this is when the mitochondrial pathology is very robust. We compared the morphology of mitochondria collected from these flies treated with drug and compared them to the mitochondria of flies that remained untreated.

[2] = tested on: primary neurons; conditions: 75 μM peroxide, 12.5 μM compound, 48 h
[3] = tested on: primary neurons; assay: TMRM fluorescence assay of inner mitochondrial membrane potential (ΔΨm); conditions: for Emax: read-out: TMRM (Effect-size); for TMRM Primary: primary screen, 12.5 μM; for TMRM Primary / TMRM Rescreen: 24 h
[4] = tested on: primary forebrain neurons; assay: cells; conditions: 24 h; for Dendritic Mt CA / Neurite Area: rescreen, 12.5 μM, vs DMSO wells; for EC50: Mus musculus, Neuron
[5] = tested on: primary neurons; assay: CellTiter-Glo luminescence-based ATP assay; assay type: cell-based, mouse; conditions: for ATP: ATP orthogonal screen, 24 h; for Emax: maximal percent increase relative to in-plate DMSO controls, read-out: ATP (Effect-size)
Summary of the method: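 Primary neurons treated from DIV13 for 24 h with compound or DMSO. After part of the medium was removed, CellTiter-Glo reagent was added; plates were shaken 10 min at 200 rpm, kept 2 min in the dark at room temperature, and luminescence read as total ATP.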

[6] = tested on: isolated forebrain mitochondria; assay: ATP production of isolated mitochondria (luciferase-based kinetic assay); assay type: biochemical, mouse
Description: Isolation of mitochondria. For the ATP synthesis experiments of FIG. 6, forebrains from P0 pups were dissected as described above. 2×10^7 cells were harvested for high-purity mitochondrial isolation using the Qiagen QProteome kit. The mitochondrial pellet was resuspended in 500 μl mitochondria storage buffer (provided by kit) and kept on ice until further use.
ATP production of isolated forebrain mitochondria of P0 pups was measured by ATP Determination Kit (Molecular Probes). […] The reactions were initiated by the addition of 1 mM ADP (deprived of ATP contamination by adding 3 U/ml hexokinase to 10 mM of ADP in 50 mM Tris-HCl, 20 mM MgCl2 and 22 mM glucose, incubating the solution at 37° C. for 1 hr and heat inactivating the hexokinase at 100° C. for 3 min). Luminescence was recorded every 15-30 sec for 1 hr at 580±40 nm.

[7] = tested on: primary neurons; assay: Mitochondrial morphology and neurite area after functional modulators; assay type: cell-based, mouse; set-up: key to Neurite Area: non-significant (n.s.); conditions: for Mitochondrial Morphology / Neurite Area: significant change
Description: Mitochondrial morphology and neurite area measurements. Mitochondrial morphology and neurite area were quantified using methods described by Varkuti et al, 2020. Briefly, Cre-dependent mitochondrial targeted GFP2 (mito-GFP) ROSA26 knock-in mice were crossed with Ai14 (007908, The Jackson Laboratory) expressing cytosolic-tdTomato, and the forebrain of P0 pups were isolated and primary neurons were cultured as described above. AAV9 virus containing the iCRE sequence driven by the neuron specific CaMKII promoter was added to the cell culture at plating and 75% of the media replaced 4 h after plating. […] Z-projected images of the green channel were preprocessed (background subtraction: rolling ball, radius=3; median filtering: radius=1) and somatic mitochondria were removed (see details in Varkuti et al, Science Advances 6 (2020) eaaw8702). Red channel images were also preprocessed (tubeness filter, soma removal). Preprocessed images were segmented by GE Developer software (object-based, kernel size: 3). […] The length and circularity measurements for mitochondria were aggregated using the median and the area for neurites using the sum. After removing empty fields and outlier values from the fields, aggregated field values were averaged to well values (4 fields/well, 12 wells/compound). Robust Z-scores were calculated using DMSO-treated wells for each well ((mediancompound−medianDMSO)/median absolute deviationDMSO), well values were averaged for each compound.
A high-content assay was developed in parallel to monitor aspects of mitochondrial dynamics in primary cultured neurons that conditionally express (Cre recombinase dependent) mitochondrial-tagged GFP and cytosolic tdTomato reporters (Varkuti et al., 2020). We monitored two aspects of neuritic mitochondrial dynamics: (1) the health of mitochondria as measured by the average circularity of axonal mitochondria, since defective mitochondria targeted for mitophagy become circular in shape, and (2) the balance between fission/fusion measured by the average length of dendritic mitochondria. […] FIG. 19A illustrates the results of surveying a collection of functional modulators selected from 5 different structural clusters (FIG. 17), quantified as robust z-scores relative to DMSO-treated control neurons.

[8] = tested on: primary neurons; assay: Oxygen consumption rate (OCR) of permeabilized primary neurons; assay type: cell-based, mouse
Description: The oxygen consumption rate (OCR) of permeabilized neurons and isolated brain mitochondria (from 9-month old mice) was measured by the XF96 Extracellular Flux analyzer (Seahorse Bioscience). […] Prior to the start of the OCR measurement, all but 30 μl of Neurobasal A/B27 culture medium was removed from each well. Cells were washed twice with pre-warmed MAS-BSA assay medium (4 mg/ml fatty-acid free BSA, pH=7.2) and incubated in 180 μl at 37° C. for 5 min. Following the cartridge calibration, cells were loaded into the XF96 Extracellular Flux analyzer and further equilibrated for 10 min with two cycles of 3 min mixing and 2 min resting prior to the first measurement of basal respiration. OCR were measured at 37° C. under basal conditions followed by the sequential injection of pre-warmed 10× mitochondrial substrates/ADP (20 μl), oligomycin (22 μl), FCCP (24 μl), and rotenone/antimycin A (26 μl). The final concentrations of injected compounds were as follows: 10 mM mitochondrial substrates (pyruvate/malate or succinate), 1 mM ADP, 1.5 μM oligomycin, 3 μM FCCP, 2 μM rotenone/antimycin A. Saponin (25 μg/ml) was co-injected with substrate/ADP to permeabilize the cells and stimulate ADP-dependent respiration. Two baseline measurements were obtained prior to any injection and 2 response measurements were collected after each injection except for after FCCP addition which consisted of 1 measurement (9 total measurements in each assay). Each measurement cycle consisted of 2 min mixing, 2 min waiting, and 3 min data acquisition. This protocol allowed for sequential assessment of basal cell respiration, maximal mitochondrial respiratory capacity (State 3 with substrate/ADP), proton leak (State 4o with oligomycin), uncoupled maximal respiration (State 3U with FCCP) and non-mitochondrial respiration with the Complex I/Complex III inhibitors, rotenone/antimycin A. Cells were washed twice with MAS buffer to remove residue BSA contained in the assay medium, lysed in 50 μl lysis buffer (25 mM HEPES, 1 mM EGTA, 1 mM EDTA, 0.1% SDS, 1% NP-40, 1× protease and phosphatase inhibitor, pH 7.0 adjusted with NaOH) and total protein was determined by BCA assay. Oxygen consumption was normalized to total protein content as pmol O2/min/ug total protein.
Oxygen consumption rate (OCR) or extracellular acidification rate (ECAR) measurements from permeabilized neurons and isolated brain mitochondria were performed using the XF96 Extracellular Flux analyzer (Seahorse Bioscience). For assays using cultured neurons, primary neurons were dissociated from the forebrains of P0 pups, seeded at 1.9×10^4/well (PDL-coated XF96 plate), cultured to DIV13 and incubated with selected compounds or DMSO (0.1%) for 24 h. Prior to the start of the OCR measurement, all but 30 μl of Neurobasal A/B27 culture medium was removed from each well. Cells were washed twice with pre-warmed MAS-BSA assay medium (70 mM sucrose, 220 mM mannitol, 10 mM KH2PO4, 5 mM MgCl2, 2 mM HEPES and 1 mM EGTA, 4 mg/ml fatty-acid free BSA, pH=7.2 adjusted using KOH) and incubated in 180 ul MAS-BSA medium at 37° C. in a CO2-free incubator for 5 m. […] OCR and ECAR were measured at 37° C. under basal conditions followed by the sequential injection of pre-warmed 10× mitochondrial substrates/ADP (20 μl), oligomycin (22 μl), FCCP (24 μl), and rotenone/antimycin A (26 μl).

[9] = Mus musculus, Primary neuron, dose response

Row | SMILES | Surface area of mitochondria, p (treated vs untreated) [1] | protection from peroxide (PO) induced mitochondrial fragmentation [2] | Emax ([3]; Mus musculus, Primary neuron) [%] | TMRM Primary [3] [Z-scores] | TMRM Rescreen [3] [Z-scores] | Dendritic Mt CA [4] [robust Z-scores] | Neurite Area [4] [robust Z-scores] | ATP [5] [Z-scores] | Emax [5, 9] [%] | Mitochondrial Morphology [7] | Neurite Area [7] | also measured
1 | Cc1ccccc1C(OCCN(C)C)c1ccccc1 (stereo not drawn) [ORPHENADRINE CITRATE] | p = 0.022 | fully protected | 25.5 | 3.26 | 5.75 | 3.21 | 0.08 | 6.08 | 14.3 | – | – | –
2 | COc1cc(O)c2c(=O)c(O)c(-c3ccc(O)c(O)c3)oc2c1 [RHAMNETIN] | p = 0.0564 | fully protected | – | – | – | 4.48 | 2.04 | – | – | – | – | EC50 ([4]; read-out: Elongation (Dend Mt length) EC50): 200 nM; EC50 ([4]; read-out: Health (Ax Mt Circularity) EC50): 2700 nM; EC50 ([4]; read-out: Mt Content (Dend Mt CA) EC50): 200 nM; EC50 ([4]; read-out: Sprouting (Neurite Area) EC50): 300 nM; ATP production kinetics, amplitude of single exponential fit ([6]; 12 μM, starting 20 min after addition, DMSO 22498±358): 10059±166; ATP production of isolated mitochondria (direct effect) ([6]; 12.5 μM, within the 45-min measurement period, vs DMSO): decreased; ATP production in neurons ([5]; after 24 hr of treatment): increase
3 | CN(C)CCC=C1c2ccccc2COc2ccccc21 [doxepin hydrochloride] | – | – | 26.1 | 3.44 | 5.41 | – | – | 7.03 | 18.3 | elongated | n.s. | axonal mitochondrial circularity ([7]; after 48 h of treatment): robust effects; basal rate of respiration ([8]; 10 μM, 24 h): weak, non-significant, but consistent trend towards an increased basal rate of respiration; State 3 and 3u respiration with Complex I substrates ([8]; 10 μM, 24 h, cultured neurons): significant increase; OCR ([8]; oxygen consumption rate, significant change): increased
4 | OC1(c2ccc(Cl)c(C(F)(F)F)c2)CCN(CCCC(c2ccc(F)cc2)c2ccc(F)cc2)CC1 [penfluridol] | p = 0.066 | – | 25.2 | 4.29 | 4.83 | – | – | 5.75 | 22.4 | elongated | increased | neuritic area ([7]; after 48 h of treatment): increase; EC50 ([3]; Mus musculus, Primary neuron, read-out: TMRM-EC50): 50 nM; EC50 ([5]; Mus musculus, Primary neuron, dose response, 15 concentrations from 6 nM to 100 uM): 30 nM
